Measured values taken from paper PMC5988656, “Phase I studies of AZD1208, a proviral integration Moloney virus kinase inhibitor in solid and haematological cancers” (British Journal of Cancer, 2018).

Legend:
p4E-BP1 S65 = experiment: PD: phosphorylation of 4E-BP1 at S65 by NanoPro immunoassay, AML study; format: in vivo, human
Protocol: For AZD1208 PD evaluations, bone marrow aspirates were collected (pretreatment and Cycle 1, Day 1, 2–6 h following administration of AZD1208) and peripheral blood samples were collected (pretreatment on Cycle 1, Day 1; and on-treatment at Cycle 1, Day 1 at 3, 6 and 24 h post-dose; Cycle 1, Day 14 at pre-dose, 3 and 6 h post-dose). Mononuclear cells were isolated, and protein lysates prepared, for subsequent analysis of phosphorylated BAD at S112 by MesoScale Discovery ELISA and phosphorylation of 4E-BP1 at S65 by NanoPro immunoassay [unpublished data: McEachern et al. 2018, manuscript in preparation]. Samples were considered evaluable when the baseline biomarker levels were above the background signal (as defined by buffer-only negative control samples) and within the linear range of assay. Additionally, only blood samples containing detectable blasts were considered for analysis.

advanced solid tumours = experiment: Solid tumour study: tumour response (RECIST v.1.1); format: in vivo, human; settings: for Best response: CR / Best response: Death / Best response: Not evaluable / Best response: Partial response / Best response: Progression / Best response: Stable disease ≥6 weeks: RECIST criteria
Protocol: In the solid tumour study, responses were evaluated using RECIST v.1.1. Contrast-enhanced CTs of the chest, abdomen, pelvis and neck were performed at screening (≤28 days before the start of study treatment), every 6 weeks (±1 week) up to 12 weeks, and then every 12 weeks (±1 week) until discontinuation of study treatment or withdrawal of consent, starting from Day 1 of Cycle 1.

Structure (SMILES): N[C@@H]1CCCN(c2c(/C=C3\SC(=O)NC3=O)cccc2-c2ccccc2)C1 [AZD1208]
- Patients with reductions in p4E-BP1 S65 (p4E-BP1 S65; evaluable bone marrow samples, single dose): 3/11
- Patients with decreases in p4E-BP1 S65 (p4E-BP1 S65; peripheral blood samples): 4/7
- Discontinued study treatment due to disease progression, patients (advanced solid tumours; 35 patients): 65.7%
- Best response: CR (advanced solid tumours; 120 mg, n=3): 0 n (%)
- Best response: Death (advanced solid tumours; 120 mg, n=3): 0 n (%)
- Best response: Not evaluable (advanced solid tumours; 120 mg, n=3): 0 n (%)
- Best response: Partial response (advanced solid tumours; 120 mg, n=3): 0 n (%)
- Best response: Progression (advanced solid tumours; 120 mg, n=3): 1 (33.3) n (%)
- Best response: Stable disease ≥6 weeks (advanced solid tumours; 120 mg, n=3): 2 (66.7) n (%)
- Best response: CR (advanced solid tumours; 240 mg, n=7): 0 n (%)
- Best response: Death (advanced solid tumours; 240 mg, n=7): 0 n (%)
- Best response: Not evaluable (advanced solid tumours; 240 mg, n=7): 0 n (%)
- Best response: Partial response (advanced solid tumours; 240 mg, n=7): 0 n (%)
- Best response: Progression (advanced solid tumours; 240 mg, n=7): 2 (28.6) n (%)
- Best response: Stable disease ≥6 weeks (advanced solid tumours; 240 mg, n=7): 5 (71.4) n (%)
- Best response: CR (advanced solid tumours; 360 mg, n=5): 0 n (%)
- Best response: Death (advanced solid tumours; 360 mg, n=5): 0 n (%)
- Best response: Not evaluable (advanced solid tumours; 360 mg, n=5): 1 (20.0) n (%)
- Best response: Partial response (advanced solid tumours; 360 mg, n=5): 0 n (%)
- Best response: Progression (advanced solid tumours; 360 mg, n=5): 3 (60.0) n (%)
- Best response: Stable disease ≥6 weeks (advanced solid tumours; 360 mg, n=5): 1 (20.0) n (%)
- Best response: CR (advanced solid tumours; 540 mg, n=7): 0 n (%)
- Best response: Death (advanced solid tumours; 540 mg, n=7): 0 n (%)
- Best response: Not evaluable (advanced solid tumours; 540 mg, n=7): 1 (14.3) n (%)
- Best response: Partial response (advanced solid tumours; 540 mg, n=7): 0 n (%)
- Best response: Progression (advanced solid tumours; 540 mg, n=7): 3 (42.9) n (%)
- Best response: Stable disease ≥6 weeks (advanced solid tumours; 540 mg, n=7): 3 (42.9) n (%)
- Best response: CR (advanced solid tumours; 700 mg, n=6): 0 n (%)
- Best response: Death (advanced solid tumours; 700 mg, n=6): 1 (16.7) n (%)
- Best response: Not evaluable (advanced solid tumours; 700 mg, n=6): 2 (33.3) n (%)
- Best response: Partial response (advanced solid tumours; 700 mg, n=6): 0 n (%)
- Best response: Progression (advanced solid tumours; 700 mg, n=6): 3 (50.0) n (%)
- Best response: Stable disease ≥6 weeks (advanced solid tumours; 700 mg, n=6): 1 (16.7) n (%)
- Best response: CR (advanced solid tumours; 800 mg, n=5): 0 n (%)
- Best response: Death (advanced solid tumours; 800 mg, n=5): 0 n (%)
- Best response: Not evaluable (advanced solid tumours; 800 mg, n=5): 1 (20.0) n (%)
- Best response: Partial response (advanced solid tumours; 800 mg, n=5): 0 n (%)
- Best response: Progression (advanced solid tumours; 800 mg, n=5): 3 (60.0) n (%)
- Best response: Stable disease ≥6 weeks (advanced solid tumours; 800 mg, n=5): 1 (20.0) n (%)
- Best objective response: progression (advanced solid tumours; RECIST, all doses): 14 n
- Best objective response: stable disease for ≥6 weeks (advanced solid tumours; RECIST, all doses): 13 n
- Objective response rate (advanced solid tumours; RECIST, all doses): 0%
- Patients with stable disease at Week 12 (advanced solid tumours; five patients evaluable): four
- Prostate-specific antigen (PSA) levels (advanced solid tumours; one patient with prostate cancer): considerable reduction
